Test results: patent US7091238B1, “Thienylhydrazon with digitalis-like properties (positive inotropic effects)” (University of Maryland, priority 1999, dated 2006)
Entries after “also recorded” stand apart in the source; their conditions may differ.

Key:
tissues and organs = assay: Histopathological study of tissues and organs after daily injection; format: in vivo, rat; details: 2 or 10 mg/kg injected daily for more than 14 days
rat cardiac muscle = assay: Isometric tension of papillary, atrial and ventricular bundles of cardiac muscle
Experimental: (§1) FIG. 2. The papillary muscle, and bundles of atrial and ventricular cells obtained from rat hearts were dissected and set in an aerated chamber to enable recording of isometric tension. LASSBio-294 was added to the chamber in a cumulative manner, first 10 μM and increasing to 50 μM and recordings made after allowing 5 min. for equilibration.
FIG. 3. LASSBio-294 was added to the physiologic solution at increasing concentrations. The isometric tension was expressed as a percent of control, as measured prior to addition of test solution. N=9 for each concentration.
a. The test shown in FIG. 2 measured the effect of LASSBio-294 on the isometric tension of papillary, atrial, and ventricular bundles of rat cardiac muscle. Chart traces are of muscle tension for each muscle group. […] FIG. 3 contains a graphic representation of the effect of LASSBio-294 on isometric tension of papillary, atrial, and ventricular bundles of rat cardiac muscle. LASSBio-294 at concentrations of 0 μM, 25 μM, 50 μM, 100 μM, 200 μM, and 500 μM was used. Isometric tension is expressed as a percent of control that was measured prior to addition of the test solution. […] General Method
as §1, with “The” for “FIG. 2. The”, “aerated verticle” for “aerated”, “manner. Recordings” for “manner, first 10 μM and increasing to 50 μM and recordings”

[1] = system: sarcoplasmic reticulum of cardiac muscle fibers; assay: Caffeine-induced contracture of saponin-treated left ventricular fibers (Ca2+ uptake/storage by sarcoplasmic reticulum); design: species or system Wistar rats
Experimental: FIG. 7. Bundles of left ventricular fibers were treated with saponin and exposed to 0.5 mM CaCl2 to enable maximal tension development (Po). The contracture initiated by caffeine (20 mM) was measured after treatment of the sarcoplasmic reticulum (SR) with a solution of pCa 6.6 in the absence or presence of LASSBio-294 (100 μM0 for 0.5, 1.0 and 5.0 min. N=6. Calibration: Vertical, 10 mm=20 mg load; Horizontal, 10 mm=40 sec.
FIG. 8. Contracture induced by caffeine in relation to loading of the sarcoplasmic reticulum with a solution of pCa 6.6.
FIG. 9. The contractual responses were obtained during exposure to 20 mM caffeine after loading of the sarcoplasmic reticulum with pCA 6.6 in the absence and the presence of LASSBio-294.
FIG. 11. Concentration-response relationship for contracture induced by caffeine in the presence of 100 μM LASSBio-294. *p<0.01.
b. Graphic representation of the tests in FIG. 7 showing the effect of LASSBio-294 on uptake of Ca^2+ by sarcoplasmic reticulum in isolated cardiac muscle with sarcolemma removed. FIG. 9 illustrates the effect of LASSBio-294 on tension in isolated cardiac muscle with sarcolemma removed was measured. Measurement of contraction induced by caffeine, as a function concentration of LASSBio-294 in bathing solution. FIG. 9 is a graphic representation of the effect of increasing concentrations of LASSBio-294 between 0 and 20 μM. […] FIG. 12 illustrates the effect of LASSBio-294 on sensitivity of cardiac fibers to calcium. Calcium levels can induce isometric twitch. […] FIG. 13 provides a graphic representation of data in FIG. 12. General Method
Bundles of left ventricular muscle (130 μm diameter and 1–2 mm in thickness) from Wistar rats were dissected out and mounted for measurement of isometric tension. The muscles were treated with saponin solution (0.5%) for 5 minutes to […] the permeability of the sarcolemma. The membranes of the SR were then […] with Triton X-100 (1% v/v) with the objective of investigating the effects of LASSBio-294 on the sensitivity of the contractile system Ca^2+. […] Caffeine is used to elicit contraction in muscle. Comparison of caffeine alone to caffeine in the presence of LASSBio-294 was measured.

[2] = system: contractile system of cardiac fibers; assay: Ca2+-induced tension in Triton X-100 treated left ventricular muscle bundles; design: species or system Wistar rats
Experimental: FIG. 12. Muscle bundles were treated with 1% Triton X-100 for 60 min and exposed to solutions containing increasing concentrations of Ca^2+ in the presence or absence of LASSBio-294 (100 μM). Calibration: Vertical, 10 mm=20 mg; Horizontal, 10 mm=40 sec.
FIG. 13. Bundles of left ventricular muscles were treated with Triton X-100 and exposed to increasing concentrations of Ca^2+. Muscle tension expressed as % of the maximal response induced by 0.5 mM CaCl2 is graphed as a function of pCa.
b. Graphic representation of the tests in FIG. 7 showing the effect of LASSBio-294 on uptake of Ca^2+ by sarcoplasmic reticulum in isolated cardiac muscle with sarcolemma removed. FIG. 9 illustrates the effect of LASSBio-294 on tension in isolated cardiac muscle with sarcolemma removed was measured. Measurement of contraction induced by caffeine, as a function concentration of LASSBio-294 in bathing solution. FIG. 9 is a graphic representation of the effect of increasing concentrations of LASSBio-294 between 0 and 20 μM. […] FIG. 12 illustrates the effect of LASSBio-294 on sensitivity of cardiac fibers to calcium. Calcium levels can induce isometric twitch. […]
Bundles of left ventricular muscle (130 μm diameter and 1–2 mm in thickness) from Wistar rats were dissected out and mounted for measurement of isometric tension. […] Comparison of caffeine alone to caffeine in the presence of LASSBio-294 was measured.

phosphodiesterase = assay: Phosphodiesterase direct effect; format: biochemical
Excerpt: Determination of phosphodiesterase direct effect was also negative.

particulate PDE 4 = assay: Direct inhibition of particulate PDE 4; format: biochemical; details: rat heart

O=C(NN=Cc1cccs1)c1ccc2c(c1)OCO2 [LASSBio-294, 3,4-methylenedioxybenzoyl-2-thienylhydrazone]
histopathological changes in tissues and organs (tissues and organs): unaffected; also recorded: no pathological changes; also recorded: no significant histopathological changes | isometric tension as percent of control vs concentration (rat cardiac muscle; 0, 25, 50, 100, 200, 500 μM, nine tests per concentration): increased for each concentration up to 200 μM | isometric tension (rat cardiac muscle; papillary, atrial, ventricular bundles, 10 μM and 50 μM cumulative): increase in tension | increased tension over control (rat cardiac muscle; ventricular, papillary and atrial bundles, concentrations of up to 200 uM): ≤ 2 fold | uptake of Ca^2+ by the sarcoplasmic reticulum ([1]; 100 μM, loading at pCa 6.6, 20 mM caffeine contracture): increases uptake of Ca^2+ | response to caffeine as a function of compound concentration ([1]; 20 mM caffeine, concentrations between 0 and 20 μM): increases until 10 μM | contraction (isometric tension) elicited by caffeine ([1]; caffeine 0.05 to 10 mM, 100 μM compound vs control): increased over control at all concentrations | storage of Ca^2+ by the sarcoplasmic reticulum ([1]; cardiac muscle fibers): increases the storage of Ca^2+ | sensitivity of muscle fibers to calcium [2]: does not change | isometric twitch response at each level of pCa ([2]; Triton X-100 treated fibers, 100 μM vs control): greater in the presence of LASSBio-294 than in control | phosphodiesterase direct effect (phosphodiesterase): negative | direct inhibition of particulate PDE 4 (particulate PDE 4): did not inhibit directly
